Columns and labels:
[1] = Population pharmacokinetic; conditions: base model without covariates
[2] = cited from earlier work
[3] = general statement, no reference given; cited from earlier work

SMILES: CN[C@H](CC(C)C)C(=O)N[C@H]1C(=O)N[C@@H](CC(N)=O)C(=O)N[C@H]2C(=O)N[C@H]3C(=O)N[C@H](C(=O)N[C@H](C(=O)O)c4cc(O)cc(O)c4-c4cc3ccc4O)[C@H](O)c3ccc(c(Cl)c3)Oc3cc2cc(c3O[C@@H]2O[C@H](CO)[C@@H](O)[C@H](O)[C@H]2O[C@H]2C[C@](C)(N)[C@H](O)[C@H](C)O2)Oc2ccc(cc2Cl)[C@H]1O [vancomycin]
- θ1CL, population typical value of CL, base model [1]: 2.47 L/h
- θ2Vd, population typical value of Vd, base model [1]: 142 L
- Vd, PopPK model ([2]; Adult Chinese patients, n = 72, 1-compartment model, ref 7 (Deng)): 47.76 L
- V2, PopPK model ([2]; Adult Gram-positive bacterial infection in ICU, n = 103, ref 25 (Weng Fangjuan)): 44.2 L
- CL, PopPK model ([2]; MRSA infectors, n = 76, 1-compartment model, ref 11 (Leu)): CLCR
- Fraction of vancomycin excreted through the kidney [3]: 90%
